{"source": "patent US6773733B2", "about": "“Structured particulate systems” (Loders Croklaan USA LLC, priority 2001, dated 2004)", "format_in_all_cases": "physicochemical", "key": {"[1]": {"assay": "Mean weight diameter by screen analysis", "settings": "weight fraction at screen multiplied by screen opening, summed for all screen sizes", "protocol": "Folic acid is used as the active component It has a mean weight diameter of 246 microns and a loose bulk density of 0.2 g/cc. The mean weight diameters is calculated as follows: weight fraction at screen multiplied by screen opening (microns), summed for all screen sizes."}, "Loose bulk density": {"assay": "Loose bulk density", "excerpt": "Loose bulk density being measured by measuring the volume of a known mass powder sample, that has passed through a screen into a gradulated cylinder. The procedure is described in USP<616<Bulk Density and Tapped Density."}, "[2]": {"assay": "Comparative homogeneity test in vegetable oil", "settings": "added to 1 kg of vegetable oil, mixed for 5 minutes, continuous visual inspection", "protocol": "Comparative homogeneity test of structured particulate Folic Acid with non-structured active particulate component: 1. 10 milligrams of non-structured active particulate component Folic Acid is added to 1 kg of vegetable oil and 40 milligrams of structured particulate Folic Acid (25%) to another 1 kg of vegetable oil. 2. Each sample is mixed for 5 minutes with continuous visual inspection for homogeneity."}}, "data": [{"smiles": "Nc1nc2ncc(CNc3ccc(C(=O)N[C@@H](CCC(=O)O)C(=O)O)cc3)nc2c(=O)[nH]1", "note": "[Folic acid]", "values": [{"measurement": "mean weight diameter", "setting": "[1]", "result": 246, "unit": "microns"}, {"measurement": "loose bulk density", "setting": "Loose bulk density", "result": 0.2, "unit": "g/cc"}, {"measurement": "homogeneity / dispersion by visual inspection", "setting": "[2]", "result": "clumps together and sticks to the container walls"}]}]}
